These results are taken from patent US20250332138A1, “PHARMACEUTICAL COMPOSITION FOR PREVENTING OR TREATING MENTAL DISORDER” (Vivozon, Inc., priority 2022, published 2025).

One experiment relates to male Sprague-Dawley rats. Briefly: Acquisition of morphine intravenous self-administration (prevention of drug addiction). The format is in vivo, rat. The following applies: 8 days, vs solvent control. The method, then: The experimental animals and the experimental methods for intravenous self-administration were performed in a similar manner to Example 1, and Test Compounds A and C were used as the test compounds.
To investigate the preventive effect of the test compounds on morphine addiction, rats recovering from surgery were subjected to morphine intravenous self-administration (IVSA) for eight (8) consecutive days, with 2-hours sessions each day, using a fixed ratio of 1 (FR1) (0.1 mg/kg/infusion, 0.1 mL delivered within 4 seconds). Test compounds A and C were dissolved in water containing 0.5% HPMC (hydroxypropyl methylcellulose) and 1% Tween 80, and administered orally at doses of 5 mg/kg and 100 mg/kg, respectively, 2 hours before morphine IVSA. The preventive effects on acquisition of morphine IVSA were measured, and the results are represented in FIGS. 4 and 5.

For the next experiment, the target named is T1, human 5-HT2A receptor (Homo sapiens, UniProt P28223).
T1 construct: expressed in transfected cells; host or cells: HEK293
Put plainly: HTRF-based IP1 accumulation assay. The following applies: HEK293 cell line overexpressing human 5-HT2A receptor; serotonin at EC80; IP1 production; read-out: Human 5-HT2AR (IC50). The method, then: The 5-HT2A receptor antagonistic effect of the test compounds was confirmed by measuring the production amount of IP1 using the HEK293 cell line permanently overexpressing the human 5-HT2A receptor. The test compounds were dissolved in 100% DMSO to a final concentration of 10 mM. The starting concentration of 10 μM was prepared from the stock solution, followed by serial dilutions to prepare working solutions in a buffer containing lithium chloride (LiCl). The cells and compounds prepared in the test buffer were placed in a 96-well plate and incubated at room temperature for 10 minutes. Serotonin of EC80 concentration was added, followed by incubation at 37° C. for 30 minutes in a light-shielding state. To measure IP1 accumulation in cells, IP1-d2 acceptor and IP1-Cryptate donor—which are HTRF-based substances for fluorescence signals—were added and incubated for 1 hour at room temperature in a light-shielded state. The fluorescent emission signals of acceptor and donor were detected, and HTRF ratio values were substracted by mean value of serotonin control. The percentage of activation was calculated by normalization of the serotonin control (0%) and IP1 control (100%). The IC50 values of the test compounds are represented in Table 2. (+: 500-1,000 nM, ++: 100-500 nM, +++: less than 100 nM).
(In general: Time-resolved FRET reads energy transfer from a long-lived donor to a nearby acceptor.)

In a further experiment the target is T2, mGluR5 (Homo sapiens, UniProt P41594).
T2 construct: expressed in transfected cells; host or cells: HEK293
Put plainly: Fluorescence-based Ca2+ mobilization assay. The following applies: HEK293 cell line overexpressing mGluR5; L-glutamate at EC80; Ca2+ level, FLIPR. The method, then:
In order to measure the activity on the mGluR5, an experiment was carried out to check the change in the intracellular Ca^2+ level using the HEK293 cell line permenantly overexpressing the mGluR5. The cells in the cell culture medium were aliquoted into a 384-well plate coated with poly-D-lysine and cultured in a 37° C. incubator supplied with 5% CO2. The next day, the medium was removed and a dye loading buffer—in which a reagent capable of measuring Ca^2+ was dissolved—was added, and then incubated at 37° C. for 60 minutes. The test compounds were dissolved in 100% DMSO at a final concentration of 10 mM to make a stock solution. The starting concentration of 10 μM was prepared from the stock solution, followed by serial dilutions to prepare working solutions (test compound working solutions). The test compound working solutions were added to the cells that were incubated in the dye loading buffer, which were maintained for 30 minutes at room temperature in a light-shielding state before measurement. The Ca^2+ level change induced by L-glutamate at EC80 concentration was measured for 2 minutes using FLIPR Tetra (MDS Analytical Technologies). The fluorescent Ca^2+ signal values in the presence of the test compounds were normalized to the fluorescent singal elicited by EC80 concentration of L-glutamate as 100% and that elicited by vehicle as 0% to estimate % inhibition of the test compounds. The efficacy of the test compounds was calculated as IC50 values and represented in Table 2. (+: 500-1,000 nM, ++: 100-500 nM, +++: less than 100 nM).

Experiment [1] has as its system neurons in the ventral tegmental area. Particulars: cited from earlier work.
A further experiment relates to mouse. Particulars: mouse tail suspension test; cited from earlier work.
The subject of experiment [2] is test animals. Particulars: injected into the amygdala; cited from earlier work.
Experiment [3] concerns test animals. Particulars: injected into the amygdala; cited from earlier work. This is another data set of the same source.
The next experiment has as its system amygdala. Particulars: cited from earlier work.
Another experiment concerns rat. Particulars: rat forced swim test; cited from earlier work.
A further experiment has as its system cocaine-addicted rats. The following applies: cited from earlier work.
The test system of experiment [4] is patients with cocaine use disorder. Particulars: 68 patients with cocaine use disorder; cited from earlier work.

T1 sequence (P28223 whole entry): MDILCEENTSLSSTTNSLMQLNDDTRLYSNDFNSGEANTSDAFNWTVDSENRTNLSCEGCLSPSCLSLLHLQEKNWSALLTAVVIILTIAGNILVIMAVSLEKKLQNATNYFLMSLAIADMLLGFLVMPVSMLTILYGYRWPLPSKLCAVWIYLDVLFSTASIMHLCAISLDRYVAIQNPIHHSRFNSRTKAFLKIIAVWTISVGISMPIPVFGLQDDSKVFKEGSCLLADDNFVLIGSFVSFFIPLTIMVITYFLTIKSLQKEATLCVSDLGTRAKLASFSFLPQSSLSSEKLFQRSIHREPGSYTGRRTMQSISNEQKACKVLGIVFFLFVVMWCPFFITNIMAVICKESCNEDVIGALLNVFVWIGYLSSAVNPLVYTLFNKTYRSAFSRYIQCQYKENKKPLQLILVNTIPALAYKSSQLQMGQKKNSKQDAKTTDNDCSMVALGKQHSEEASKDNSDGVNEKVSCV
T2 sequence (P41594 21-1212): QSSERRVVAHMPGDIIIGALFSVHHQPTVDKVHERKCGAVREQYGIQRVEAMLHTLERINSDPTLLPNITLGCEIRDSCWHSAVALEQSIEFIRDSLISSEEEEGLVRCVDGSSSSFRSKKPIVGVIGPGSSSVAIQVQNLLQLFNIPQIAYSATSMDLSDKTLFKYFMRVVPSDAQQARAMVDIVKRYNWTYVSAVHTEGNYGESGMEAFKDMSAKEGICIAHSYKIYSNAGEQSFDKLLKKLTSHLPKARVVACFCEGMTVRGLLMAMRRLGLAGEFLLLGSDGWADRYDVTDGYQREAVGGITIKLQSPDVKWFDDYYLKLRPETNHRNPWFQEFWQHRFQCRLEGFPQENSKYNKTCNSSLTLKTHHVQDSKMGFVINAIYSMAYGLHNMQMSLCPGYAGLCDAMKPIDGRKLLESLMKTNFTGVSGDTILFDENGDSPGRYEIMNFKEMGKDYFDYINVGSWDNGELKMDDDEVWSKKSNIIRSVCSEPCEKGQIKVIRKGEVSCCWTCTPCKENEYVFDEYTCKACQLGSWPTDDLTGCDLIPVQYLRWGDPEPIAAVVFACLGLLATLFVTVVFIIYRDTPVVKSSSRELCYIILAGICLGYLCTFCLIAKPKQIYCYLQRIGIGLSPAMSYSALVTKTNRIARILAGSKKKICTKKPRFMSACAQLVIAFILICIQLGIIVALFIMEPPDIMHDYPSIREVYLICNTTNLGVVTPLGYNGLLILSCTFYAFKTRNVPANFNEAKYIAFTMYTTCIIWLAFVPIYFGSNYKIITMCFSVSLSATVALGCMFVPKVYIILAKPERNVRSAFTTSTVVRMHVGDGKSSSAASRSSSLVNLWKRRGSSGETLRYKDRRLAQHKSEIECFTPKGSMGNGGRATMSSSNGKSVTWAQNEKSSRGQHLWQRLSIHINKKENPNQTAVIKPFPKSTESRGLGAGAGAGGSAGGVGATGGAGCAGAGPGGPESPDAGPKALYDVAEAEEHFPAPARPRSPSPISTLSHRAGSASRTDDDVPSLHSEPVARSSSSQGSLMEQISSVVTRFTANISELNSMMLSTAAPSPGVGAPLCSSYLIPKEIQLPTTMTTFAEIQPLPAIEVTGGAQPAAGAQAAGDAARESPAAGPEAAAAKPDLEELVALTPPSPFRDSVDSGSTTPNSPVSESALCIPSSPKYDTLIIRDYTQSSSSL

`O=C(NCC1CCOCC1)c1ccc(C#Cc2ccccc2F)cc1` [Compound 1, 4-((2-fluorophenyl)ethynyl)-N-((tetrahydro-2H-pyran-4-yl)methyl)benzamide]: in the experiment on male Sprague-Dawley rats (100 mg/kg orally 2 hours before morphine IVSA, FIG. 5), the “number of injections (acquisition of morphine self-administration)” value is “significantly lower”.
Take `CC1(CNC(=O)c2ccc(C#Cc3ccccc3F)cc2)COC1` [Compound 6, 4-((2-fluorophenyl)ethynyl)-N-((3-methyloxetan-3-yl)methyl)benzamide]: the “number of injections (acquisition of morphine self-administration)” value in the experiment with male Sprague-Dawley rats (5 mg/kg orally 2 hours before morphine IVSA, FIG. 4) is on record as “significantly lower”.
The term IC50 denotes the midpoint of a concentration-inhibition curve. In the case of `CC1(O)CC(CNC(=O)c2ccc(C#Cc3ccccc3F)cc2)C1` (stereo not drawn) [Compound 12, 4-((2-fluorophenyl)ethynyl)-N-(((1s,3s)-3-hydroxy-3-methylcyclobutyl)methyl)benzamide], the figures for the 50% inhibitory concentration (IC50) at human 5-HT2A receptor and against mGluR5 were 100 to 500 nM and less than 100 nM, respectively.
`[2H]C(NC(=O)c1ccc(C#Cc2ccccc2F)cc1)C1(C)COC1` (stereo not drawn) [Compound 16, 4-((2-fluorophenyl)ethynyl)-N-((3-methyloxetan-3-yl)methyl-d)benzamide]: on human 5-HT2A receptor, the IC50 is 100 to 500 nM.
On to `O=C(NC[C@H]1CCOC1)c1ccc(C#Cc2ccc(F)cc2F)cc1` [Compound 18, (R)-4-((2,4-difluorophenyl)ethynyl)-N-((tetrahydrofuran-3-yl)methyl)benzamide], for which the IC50 against mGluR5 is 100 to 500 nM.
Take `O=C(NC[C@@H]1CCOC1)c1ccc(C#Cc2ccc(F)cc2F)cc1` [Compound 19, (S)-4-((2,4-difluorophenyl)ethynyl)-N-((tetrahydrofuran-3-yl)methyl)benzamide]: the IC50 against mGluR5 fell in the range of 100 to 500 nM.
In the case of `CC1(CNC(=O)c2ccc(C#Cc3ccc(F)cc3F)cc2)CCOCC1` [Compound 24, 4-((2,4-difluorophenyl)ethynyl)-N-((4-methyltetrahydro-2H-pyran-4-yl)methyl)benzamide], the IC50 is 100 to 500 nM at human 5-HT2A receptor and less than 100 nM against mGluR5.
In the case of `O=C(NCCC1CCOCC1)c1ccc(C#Cc2ccc(F)cc2F)cc1` [Compound 25, 4-((2,4-difluorophenyl)ethynyl)-N-(2-(tetrahydro-2H-pyran-4-yl)ethyl)benzamide], the figures for the IC50 at human 5-HT2A receptor and at mGluR5 were less than 100 nM and 100 to 500 nM, respectively.
Regarding `O=C(NCC1(O)CCCCC1)c1ccc(C#Cc2ccc(F)cc2)cc1` [Compound 26, 4-((4-fluorophenyl)ethynyl)-N-((1-hydroxycyclohexyl)methyl)benzamide], the half-inhibitory concentration (IC50) at human 5-HT2A receptor is 100 to 500 nM; at mGluR5, less than 100 nM.
The corresponding values for `O=C(NCC1(O)CCC1)c1ccc(C#Cc2ccc(F)cc2)cc1` [Compound 27, 4-((4-fluorophenyl)ethynyl)-N-((1-hydroxycyclobutyl)methyl)benzamide] are less than 100 nM and less than 100 nM.
Consider `O=C(NCC1(O)CCCCC1)c1ccc(C#Cc2ccc(F)cc2F)cc1` [Compound 28, 4-((2,4-difluorophenyl)ethynyl)-N-((1-hydroxycyclohexyl)methyl)benzamide], for which the IC50 at human 5-HT2A receptor is 100 to 500 nM; at mGluR5 it was 500 to 1000 nM.
`O=C(NCC1(O)CCC1)c1ccc(C#Cc2ccc(F)cc2F)cc1` [Compound 29, 4-((2,4-difluorophenyl)ethynyl)-N-((1-hydroxycyclobutyl)methyl)benzamide]: the IC50 on human 5-HT2A receptor is less than 100 nM; on mGluR5, 100 to 500 nM.
The corresponding values for `O=C(NCC1CCC1)c1ccc(C#Cc2ccc(F)cc2F)cc1` [Compound 30, N-(cyclobutylmethyl)-4-((2,4-difluorophenyl)ethynyl)benzamide] are 100 to 500 nM and 100 to 500 nM.
Regarding `COc1cccc([C@H](O)C2CCN(CCc3ccc(F)cc3)CC2)c1OC` [Compound M100907], the dopamine secretion result in [1] is “inhibited”.
For `COc1cc(CC(C)N)c(OC)cc1I` (stereo not drawn) [DOI, 1-[2,5-dimethoxy-4-iodophenyl]-2-aminopropane], in experiment [1], the dopamine secretion entry is on record as “promoted dopamine secretion”.
For the compound `Cc1cccc(C#Cc2ccccc2)n1` [MPEP], the immobility time result with mouse is given as “decreased immobility time in a dose-dependent manner”. Besides, in the experiment on test animals [2], the “number of entries into the open arm” value was “increased” and the “time the test animals spend in the open arm” value is recorded as “increased”. Moreover, the “time the test animals spend in the bright area” value in the experiment with test animals [3] is “increased”. Also, the “formation of long-term potentiation (LTP) in the amygdala” value in the experiment on amygdala is given as “inhibiting”.
In the case of `Cc1nc(C#Cc2cccnc2)cs1` [MTEP, 3-[(2-methyl-1,3-thiazol-4-yl)ethynyl]pyridine], the immobility time entry with rat was “reducing immobility time”.
`O=C(c1ccc(F)cc1)C1CCN(CCn2c(=O)[nH]c3ccccc3c2=O)CC1` [ketanserin]: the “self-administration restored by signal stimulation” value in the experiment with cocaine-addicted rats was “reduced”. Moreover, the “cocaine-induced increase in dopamine” value in experiment [1] (pretreatment) was “suppressed”.
Regarding `COC(=O)N1CC[C@@H]2[C@H]1CCC[C@@]2(O)C#Cc1cccc(C)c1` [mavoglurant], in experiment [4], the clinical efficacy entry was “confirmed”.
As to `Cc1nc2sccn2c(=O)c1CCN1CCC(=C(c2ccc(F)cc2)c2ccc(F)cc2)CC1` [ritanserin], in experiment [1], the dopamine secretion entry is listed as “inhibited”.
